Measurements taken from patent US5929249A, “Substituted imidazolyl-alkyethio-aldanoic acids” (SmithKline Beecham Corporation, priority 1992, dated 1999).

Test system: pressor response to angiotensin II
Assay: Inhibition of pressor response to angiotensin II in conscious rats
Assay type: in vivo
Conditions: Rattus norvegicus, i.v., intravenous angiotensin II 250 mg/kg [sic], change in mean arterial pressure, read-out: IC50 (dose of compound needed to produce 50% inhibition of the control response to angiotensin II)
Description: Angiotensin II antagonist activity of the compounds of Formula (I) is assessed by in vitro and in vivo methods. In vitro antagonist activity is determined by the ability of the compounds to compete with ^125 I-angiotensin II for binding to vascular angiotensin II receptors and by their ability to antagonize the contractile response to angiotensin II in the isolated rabbit aorta. In vivo activity is evaluated by the efficacy of the compounds to inhibit the pressor response to exogenous angiotensin II in conscious rats and to lower blood pressure in a rat model of renin dependent hypertension.
Rats are prepared with indwelling femoral arterial and venous catheters and a stomach tube (Gellai et al., Kidney Int. 15:419, 1979). Two to three days following surgery the rats are placed in a restrainer and blood pressure is continuously monitored from the arterial catheter with a pressure transducer and recorded on a polygraph. The change in mean arterial pressure in response to intravenous injections of […] angiotensin II is compared at various time points prior to and following the administration of the compounds intravenously or orally at doses of 0.1 to 300 mg/kg. The dose of compound needed to produce 50% inhibition of the control response to angiotensin II (IC50) is used to estimate the potency of the compounds. […]

In the case of `CCCCc1ncc(CSc2ccccc2C(=O)O)n1Cc1ccc(C(=O)O)cc1` [S-[(2-n-Butyl-1-{(4-carboxyphenyl)methyl}-1H-imidazol-5-yl)methyl]thiosalicyclic Acid], the ED50 is reported as about 0.5 mg/kg.
